Values of other authors in patent US20150306063A1, “COMPOSITION AND METHOD FOR VAGINAL THERAPY” (priority 2014, published 2015).

Details: elderly patients, including patients older than 65 years of age

half-life in the elderly as compared with a younger population: only slightly prolonged
SMILES: COc1ccccc1OCC(O)COC(N)=O (stereo not shown) [Methocarbamol, 3-(2-methoxyphenoxy)-1,2-propanediol 1-carbamate]
